The values that follow come from patent US10155768B2, “Fused pyrimidine compound or salt thereof” (TAIHO PHARMACEUTICAL CO., LTD., priority 2016, dated 2018).

For orientation: IC50 means the concentration that gives 50% inhibition.

The subject of one series is TT cells (human thyroid cancer cell line with RET activating mutation). Kind of series: In vivo antitumor effect, mice subcutaneously implanted with TT cells. The settings on record: 100 mg/kg/day oral, 14 days, day 15. Further details: species or system BALB/cA Jcl-nu/nu male mice.
Protocol: Human thyroid cancer cell lines (TT) were subcutaneously implanted into the right frank of 6- to 7-week-old BALB/cA Jcl-nu/nu male mice. After about 2 to 3 weeks from the cell implantation, the length (nm) and the width (mm) of tumors found in mouse bodies were measured. […] The day on which the mice were divided into groups was determined to be the “grouping day” (day 0 or 1).
A control group was administered a solvent (0.5% HPMC/0.1N HCl).
To determine the index of the antitumor effect, TV of each drug-administrated group was measured on day 15, and the tumor volume on day 15 relative to the tumor volume on the grouping day (day 0 or 1) (relative tumor volume: RTV) and T/C (%) were calculated from the following equations, and the antitumor effect was evaluated. […] TV(mm^3)=(length×width^2)/2 RTV=(TV on day 15)/(TV on day 0 or day 1) T/C(%)=(the mean RTV of a test compound treatment group)/(the mean RTV of the control group)×100
Consider `COCc1ccc(NC(=O)c2c(C#CCN3CCOCC3)n(C3(C)CC3)c3ncnc(N)c23)cc1` [Example 85, 4-amino-N-[4-(methoxymethyl)phenyl]-7-(1-methylcyclopropyl)-6-(3-morpholinoprop-1-yn-1-yl)-7H-pyrrolo[2,3-d]pyrimidine-5-carboxamide], for which the “T/C (%)” value is 23% and the “TV (mm^3) Day 15 Mean ± SE” value amounted to 139.42 ± 10.17 mm^3.

The same series, now with this note: 100 mg/kg/day oral, 14 days, day 15 relative to day 0.
As to `COCc1ccc(NC(=O)c2c(C#CCN3CCOCC3)n(C3(C)CC3)c3ncnc(N)c23)cc1` [Example 85, 4-amino-N-[4-(methoxymethyl)phenyl]-7-(1-methylcyclopropyl)-6-(3-morpholinoprop-1-yn-1-yl)-7H-pyrrolo[2,3-d]pyrimidine-5-carboxamide], the “RTV Day 15 Mean ± SE” value stood at 0.87 ± 0.13.

A further series relates to LC-2/ad cells (a human lung adenocarcinoma cell line with CCDC6-RET fusion gene). The series is described as follows: Cell growth inhibitory effect (2), LC-2/ad cells. The settings on record: 168 h, read-out: LC-2/ad Cell GI50. Format: cell-based.
Protocol: An in vitro cytotoxicity test was performed on LC-2/ad cells (a human lung adenocarcinoma cell line with CCDC6-RET fusion gene).
(§1) After shaking, each culture was allowed to stand at room temperature for 15 minutes, and the chemiluminescence was measured with a luminometer to use it as an index of the number of viable cells.
Take `COCc1ccc(NC(=O)c2c(C#CCN3CCOCC3)n(C3(C)CC3)c3ncnc(N)c23)cc1` [Example 85, 4-amino-N-[4-(methoxymethyl)phenyl]-7-(1-methylcyclopropyl)-6-(3-morpholinoprop-1-yn-1-yl)-7H-pyrrolo[2,3-d]pyrimidine-5-carboxamide]: the GI50 came to 17.7 nM.

System in the next series: not given
Experiment: not given
The settings on record: mouse, microsomes, 0.5 h.
On to `COCc1ccc(NC(=O)c2c(C#CCN3CCOCC3)n(C3(C)CC3)c3ncnc(N)c23)cc1` [Example 85, 4-amino-N-[4-(methoxymethyl)phenyl]-7-(1-methylcyclopropyl)-6-(3-morpholinoprop-1-yn-1-yl)-7H-pyrrolo[2,3-d]pyrimidine-5-carboxamide], for which the “Remaining (%)” value came out at 79%. Still for that read-out and setting: to `C/C=C/c1ccc(NC(=O)c2cn(C3(C)CC3)c3ncnc(N)c23)cc1` [Example 107, (E)-4-amino-7-(1-methylcyclopropyl)-N-(4-(prop-1-en-1-yl)phenyl)-7H-pyrrolo[2,3-d]pyrimidine-5-carboxamide] belongs 63%. For `C#Cc1ccc(NC(=O)c2cn(C3(C)CC3)c3ncnc(N)c23)cc1` [Example 108, 4-amino-N-(4-ethynylphenyl)-7-(1-methylcyclopropyl)-7H-pyrrolo[2,3-d]pyrimidine-5-carboxamide], the “Remaining (%)” value is recorded as 60%.

The series is the same for the next values; noted with them: mouse, microsomes, 0.5 h, 1 μM.
With `C/C=C/c1ccc(NC(=O)c2c(OCC)n(C3(C)CC3)c3ncnc(N)c23)cc1` [Example 117, (E)-4-amino-6-ethoxy-7-(1-methylcyclopropyl)-N-(4-(prop-1-en-1-yl)phenyl)-7H-pyrrolo[2,3-d]pyrimidine-5-carboxamide], the “Remaining (%)” value is given as 53%.

In another series the target is recombinant human RET protein (Homo sapiens (Human), UniProt P07949). The series is described as follows: Measurement of inhibitory activity against RET (in vitro). The settings on record: ATP 10 μM. In kind it is biochemical.
recombinant human RET protein, sequence (P07949 29-1114): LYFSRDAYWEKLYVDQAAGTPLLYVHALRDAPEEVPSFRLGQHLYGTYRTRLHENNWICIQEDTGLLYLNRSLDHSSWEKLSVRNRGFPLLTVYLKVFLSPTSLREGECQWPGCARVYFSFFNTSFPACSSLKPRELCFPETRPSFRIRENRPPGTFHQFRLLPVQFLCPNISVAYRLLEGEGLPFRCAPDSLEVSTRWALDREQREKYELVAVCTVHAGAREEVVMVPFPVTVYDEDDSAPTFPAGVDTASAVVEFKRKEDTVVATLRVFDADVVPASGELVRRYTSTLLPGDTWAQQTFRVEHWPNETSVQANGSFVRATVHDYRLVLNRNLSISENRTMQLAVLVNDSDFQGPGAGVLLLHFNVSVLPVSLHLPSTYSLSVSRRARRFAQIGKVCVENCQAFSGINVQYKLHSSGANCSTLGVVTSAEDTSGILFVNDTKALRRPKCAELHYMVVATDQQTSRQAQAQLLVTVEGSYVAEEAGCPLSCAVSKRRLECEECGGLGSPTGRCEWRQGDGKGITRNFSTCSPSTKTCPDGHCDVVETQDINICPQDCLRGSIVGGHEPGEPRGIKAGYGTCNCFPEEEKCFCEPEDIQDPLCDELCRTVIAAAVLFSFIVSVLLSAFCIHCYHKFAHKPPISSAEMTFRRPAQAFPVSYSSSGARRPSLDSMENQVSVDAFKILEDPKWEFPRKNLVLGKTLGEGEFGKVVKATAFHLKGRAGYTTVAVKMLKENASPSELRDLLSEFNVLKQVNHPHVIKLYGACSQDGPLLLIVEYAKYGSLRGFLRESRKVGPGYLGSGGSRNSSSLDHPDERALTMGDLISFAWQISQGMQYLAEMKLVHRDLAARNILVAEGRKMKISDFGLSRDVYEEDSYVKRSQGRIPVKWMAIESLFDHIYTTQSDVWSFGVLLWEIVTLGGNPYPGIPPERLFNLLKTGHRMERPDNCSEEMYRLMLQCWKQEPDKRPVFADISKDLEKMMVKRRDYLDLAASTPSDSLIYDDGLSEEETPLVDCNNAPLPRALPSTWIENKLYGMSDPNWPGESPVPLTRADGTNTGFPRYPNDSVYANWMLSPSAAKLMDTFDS
For the compound `COCc1ccc(NC(=O)c2nn(-c3ccccc3)c3ncnc(N)c23)cc1` [Comound 5 of Comparative Examples, 4-amino-N-(4-(methoxymethyl)phenyl)-1-phenyl-1H-pyrazolo[3,4-d]pyrimidine-3-carboxamide], the IC50 is above 5000 nM.

System in the next series: not listed separately
The series is described as follows: Evaluation of stability in liver microsome. The settings on record: mouse liver microsome 0.25 mg/mL, 1 μM test compound, 37° C. for 30 minutes. In general terms: Microsomes from liver hold many membrane-bound enzymes, among them those of drug oxidation.
Protocol: Solutions of the test compounds in DMSO/acetonitrile (the final concentration of each test compound was 1 μM, the final concentration of DMSO was 0.01%, and the final concentration of acetonitrile was 1%) were individually added to a liver microsome mixture solution (mouse liver microsome with a final concentration of 0.25 mg/mL, a potassium phosphate buffer with a final concentration of 100 mM, and magnesium chloride with a final concentration of 3 mM), and each mixture was pre-incubated at 37° C. for 5 minutes. […] After incubation at 37° C. for 30 minutes, a double amount of ethanol was added thereto to terminate the reaction, thereby obtaining post-reaction samples. A double amount of ethanol was added to each of the remaining mixture solutions, and a NADPH-generating system was further added thereto, thereby obtaining pre-reaction samples. The pre-reaction samples and post-reaction samples were centrifuged at 2000×g, and their supernatant was filtered through a glass filter. Each filtrate was then introduced into LC-MS/MS, and MS/MS peaks of the test compounds were detected. From the ratio of the post-reaction MS/MS peak to the pre-reaction MS/MS peak of the test compounds, the percentage of the remaining test compounds (remaining %) was calculated.
On to `CCC(O)CC#Cc1c(C(=O)Nc2ccc(COC)cc2)c2c(N)ncnc2n1C1(C)CC1` (centres unmarked) [Example 157, 4-amino-6-(4-hydroxyhex-1-yn-1-yl)-N-(4-(methoxymethyl)phenyl)-7-(1-methylcyclopropyl)-7H-pyrrolo[2,3-d]pyrimidine-5-carboxamide], for which the “Remaining (%)” value is 59%. Same read-out and setting: next, `COCc1ccc(NC(=O)c2c(C(C)O)n(C3(C)CC3)c3ncnc(N)c23)cc1` (centres unmarked) [Example 204, 4-amino-6-(1-hydroxyethyl)-N-(4-(methoxymethyl)phenyl)-7-(1-methylcyclopropyl)-7H-pyrrolo[2,3-d]pyrimidine-5-carboxamide]: 83%; `COCc1ccc(NC(=O)c2cn(C3(CF)CC3)c3ncnc(N)c23)cc1` [Example 45, 4-amino-7-(1-(fluoromethyl)cyclopropyl)-N-(4-(methoxymethyl)phenyl)-7H-pyrrolo[2,3-d]pyrimidine-5-carboxamide]: 66%. Same read-out and setting: to `COCc1ccc(NC(=O)c2c(C#Cc3ccc[nH]3)n(C3(C)CC3)c3ncnc(N)c23)cc1` [Example 161, 6-((1H-pyrrol-2-yl)ethynyl)-4-amino-N-(4-(methoxymethyl)phenyl)-7-(1-methylcyclopropyl)-7H-pyrrolo[2,3-d]pyrimidine-5-carboxamide] belongs 68%; to `COCc1ccc(NC(=O)c2c(C#Cc3ccc4c(c3)NCCO4)n(C3(C)CC3)c3ncnc(N)c23)cc1` [Example 158, 4-amino-6-((3,4-dihydro-2H-benzo[b][1,4]oxazin-6-yl)ethynyl)-N-(4-(methoxymethyl)phenyl)-7-(1-methylcyclopropyl)-7H-pyrrolo[2,3-d]pyrimidine-5-carboxamide], 85%. For `COCc1ccc(NC(=O)c2c(C#Cc3cnc4cccnn34)n(C3(C)CC3)c3ncnc(N)c23)cc1` [Example 91, 4-amino-6-(imidazo[1,2-b]pyridazin-3-ylethynyl)-N-[4-(methoxymethyl)phenyl]-7-(1-methylcyclopropyl)-7H-pyrrolo[2,3-d]pyrimidine-5-carboxamide], the “Remaining (%)” value is listed as 65%. The same measure, in the same setting: next, `COCc1ccc(NC(=O)c2c(C#CCN(C)C)n(C3(C)CC3)c3ncnc(N)c23)cc1` [Example 198, 4-amino-6-(3-(dimethylamino)prop-1-yn-1-yl)-N-(4-(methoxymethyl)phenyl)-7-(1-methylcyclopropyl)-7H-pyrrolo[2,3-d]pyrimidine-5-carboxamide]: 57%; `COCc1ccc(NC(=O)c2c(C#CC3CCOCC3)n(C3(C)CC3)c3ncnc(N)c23)cc1` [Example 87, 4-amino-N-[4-(methoxymethyl)phenyl]-7-(1-methylcyclopropyl)-6-((tetrahydro-2H-pyran-4-yl)ethynyl)-7H-pyrrolo[2,3-d]pyrimidine-5-carboxamide]: 63%. Same read-out and setting: to `COCc1ccc(NC(=O)c2c(-c3cccnc3)n(C3(C)CC3)c3ncnc(N)c23)cc1` [Example 61, 4-amino-N-(4-(methoxymethyl)phenyl)-7-(1-methylcyclopropyl)-6-(pyridin-3-yl)-7H-pyrrolo[2,3-d]pyrimidine-5-carboxamide] belongs 81%; to `COCc1ccc(NC(=O)c2c(C#CC3CCOCC3)n(C3(C)CC3)c3ncnc(N)c23)cc1F` [Example 205, 4-amino-N-(3-fluoro-4-(methoxymethyl)phenyl)-7-(1-methylcyclopropyl)-6-((tetrahydro-2H-pyran-4-yl)ethynyl)-7H-pyrrolo[2,3-d]pyrimidine-5-carboxamide], 58%; to `COCc1ccc(NC(=O)c2c(C#Cc3cnc4[nH]ccc4c3)n(C3(C)CC3)c3ncnc(N)c23)cc1` [Example 128, 6-((1H-pyrrolo[2,3-b]pyridine-5-yl)ethynyl)-4-amino-N-(4-(methoxymethyl)phenyl)-7-(1-methylcyclopropyl)-7H-pyrrolo[2,3-d]pyrimidine-5-carboxamide], 82%. On to `COCc1ccc(NC(=O)c2cn(C(C)(C)C)c3ncnc(N)c23)cc1` [Example 2, 4-amino-7-(tert-butyl)-N-(4-(methoxymethyl)phenyl)-7H-pyrrolo[2,3-d]pyrimidine-5-carboxamide], for which the “Remaining (%)” value is given as 64%. The same measure, in the same setting: to `COCc1ccc(NC(=O)c2c(C#Cc3ccccn3)n(C3(C)CC3)c3ncnc(N)c23)cc1` [Example 172, 4-amino-N-[4-(methoxymethyl)phenyl]-7-(1-methylcyclopropyl)-6-(pyridin-2-ylethynyl)-7H-pyrrolo[2,3-d]pyrimidine-5-carboxamide] belongs 61%; to `COCc1ccc(NC(=O)c2c(C#Cc3cnn(C)c3)n(C3(C)CC3)c3ncnc(N)c23)cc1` [Example 90, 4-amino-N-[4-(methoxymethyl)phenyl]-6-((1-methyl-1H-pyrazol-4-yl)ethynyl)-7-(1-methylcyclopropyl)-7H-pyrrolo[2,3-d]pyrimidine-5-carboxamide], 67%. Still for that read-out and setting: to `COCc1ccc(NC(=O)c2c(-c3ccc(F)nc3)n(C3(C)CC3)c3ncnc(N)c23)cc1` [Example 190, 4-amino-6-(6-fluoropyridin-3-yl)-N-(4-(methoxymethyl)phenyl)-7-(1-methylcyclopropyl)-7H-pyrrolo[2,3-d]pyrimidine-5-carboxamide] belongs 58%; to `COCc1ccc(NC(=O)c2c(OCC3CCOCC3)n(C3(C)CC3)c3ncnc(N)c23)cc1` [Example 141, 4-amino-N-(4-(methoxymethyl)phenyl)-7-(1-methylcyclopropyl)-6-((tetrahydro-2H-pyran-4-yl)methoxy)-7H-pyrrolo[2,3-d]pyrimidine-5-carboxamide], 68%; to `COCc1ccc(NC(=O)c2c(C#CCC3CCCCC3)n(C3(C)CC3)c3ncnc(N)c23)cc1` [Example 199, 4-amino-6-(3-cyclohexylprop-1-yn-1-yl)-N-(4-(methoxymethyl)phenyl)-7-(1-methylcyclopropyl)-7H-pyrrolo[2,3-d]pyrimidine-5-carboxamide], 80%. Same read-out and setting: next, `COCc1ccc(NC(=O)c2c(C#Cc3cnn(C(C)C)c3)n(C3(C)CC3)c3ncnc(N)c23)cc1` [Example 144, 4-amino-6-((1-isopropyl-1H-pyrazol-4-yl)ethynyl)-N-(4-(methoxymethyl)phenyl)-7-(1-methylcyclopropyl)-7H-pyrrolo[2,3-d]pyrimidine-5-carboxamide]: 79%; `COCc1ccc(NC(=O)c2c(OC)n(C3(C)CC3)c3ncnc(N)c23)cc1` [Example 57, 4-amino-6-methoxy-N-[4-(methoxymethyl)phenyl]-7-(1-methylcyclopropyl)-7H-pyrrolo[2,3-d]pyrimidine-5-carboxamide]: 86%. Take `COCc1ccc(NC(=O)c2cn(C3(C4CC4)CC3)c3ncnc(N)c23)cc1` [Example 49, 7-{[1,1-bi(cyclopropane)]-1-yl}-4-amino-N-(4-(methoxymethyl)phenyl)-7H-pyrrolo[2,3-d]pyrimidine-5-carboxamide]: the “Remaining (%)” value amounted to 67%. On the same count and under the same terms, next, `COCc1ccc(NC(=O)c2c(C#CCN3CCCCC3)n(C3(C)CC3)c3ncnc(N)c23)cc1` [Example 105, 4-amino-N-[4-(methoxymethyl)phenyl]-7-(1-methylcyclopropyl)-6-(3-(piperidin-1-yl)prop-1-yn-1-yl)-7H-pyrrolo[2,3-d]pyrimidine-5-carboxamide]: 52%. Still for that read-out and setting: to `COCc1ccc(NC(=O)c2c(OC[C@H]3CCCO3)n(C3(C)CC3)c3ncnc(N)c23)cc1` [Example 89, (R)-4-amino-N-[4-(methoxymethyl)phenyl]-7-(1-methylcyclopropyl)-6-((tetrahydrofuran-2-yl)methoxy)-7H-pyrrolo[2,3-d]pyrimidine-5-carboxamide] belongs 69%.

A further series concerns TT cells (a human thyroid cancer cell line with RET activating mutation (C634W)). Kind of series: Cell growth inhibitory effect (1), TT cells. Format: cell-based. The settings on record: 168 h, read-out: TT Cell GI50 (nM).
Protocol: An in vitro cytotoxicity test was performed on TT cells (a human thyroid cancer cell line with RET activating mutation (C634W)).
as §1
C: The absorbance of the well to which a test compound was not added. Day 1: The day on which a test compound was added. Day 8: The day on which evaluation was performed.
For the compound `COCc1ccc(NC(=O)c2c(C#CCN3CCOCC3)n(C3(C)CC3)c3ncnc(N)c23)cc1` [Example 85, 4-amino-N-[4-(methoxymethyl)phenyl]-7-(1-methylcyclopropyl)-6-(3-morpholinoprop-1-yn-1-yl)-7H-pyrrolo[2,3-d]pyrimidine-5-carboxamide], the GI50 worked out at 10 nM.
